The source of these data is ChEMBL document CHEMBL6103558, “The potential of MAO inhibitors as chemotherapeutics in cancer: A literature survey” (Eur J Med Chem, 2025).

Assay [1] deals with HCT-116. The experiment in a line: Anticancer activity against human HCT-116 cells assessed as reduction in cell growth by MTT assay. The class given is functional, cell-based. (Formazan colour is commonly taken as a measure of viable cells.)
The test system of assay [2] is HCT-116. The experiment in a line: Anti-migratory activity against human HCT116 cells assessed as reduction in cell migration at 0.05 uM incubated for 24 hrs by wound healing assay relative to control. It counts as functional. Further details: scale not given: the % may be the effect or the level left.
The test system of assay [3] is HCT-116. The assay can be described thus: Antiproliferative activity against human HCT-116 cells by MTT assay. The class given is functional, cell-based.
Assay [4] concerns MCF7. The assay can be described thus: Antiproliferative activity against human MCF7 cells by MTT assay. It counts as functional, cell-based.
In assay [5] the test system is SK-OV-3. The assay can be described thus: Antiproliferative activity against human SK-OV-3 cells by MTT assay. It counts as functional, cell-based.
The target in assay [6] is T1, Amine oxidase [flavin-containing] B (Homo sapiens, UniProt P27338).
T1 sequence (P27338 whole entry): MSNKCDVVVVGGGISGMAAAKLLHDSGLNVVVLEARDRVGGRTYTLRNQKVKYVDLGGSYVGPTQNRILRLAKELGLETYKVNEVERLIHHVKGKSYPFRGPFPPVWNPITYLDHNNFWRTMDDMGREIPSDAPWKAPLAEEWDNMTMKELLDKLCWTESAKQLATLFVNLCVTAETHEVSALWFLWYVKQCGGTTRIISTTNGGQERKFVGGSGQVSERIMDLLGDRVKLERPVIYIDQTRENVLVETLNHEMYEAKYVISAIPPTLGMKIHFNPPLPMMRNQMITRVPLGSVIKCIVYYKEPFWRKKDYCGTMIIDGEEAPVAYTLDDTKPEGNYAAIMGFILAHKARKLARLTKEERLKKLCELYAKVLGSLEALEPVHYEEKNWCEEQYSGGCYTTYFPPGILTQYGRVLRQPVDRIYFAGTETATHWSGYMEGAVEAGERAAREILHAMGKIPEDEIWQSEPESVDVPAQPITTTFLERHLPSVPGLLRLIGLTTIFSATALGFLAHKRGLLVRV
The assay can be described thus: Binding affinity to MAO-B (unknown origin) measured by MAO-GloTM method.

Assay [7] has as its system LN-229. The assay can be described thus: Growth inhibition of human LN-229 cells incubated for 48 hrs by trypan blue exclusion assay. The class given is functional.
In assay [8] the target is T1, Amine oxidase [flavin-containing] B. The experiment in a line: Inhibition of human MAO-B.
The test system of assay [9] is LNCaP. The experiment in a line: Antiproliferative activity against human LNCap cells assessed as reduction in cell viability incubated for 72 hrs by resazurin dye based assay. The class given is functional. Background: Alamar Blue is a resazurin reagent that responds to reducing activity.
Assay [10] concerns the target T2, Amine oxidase [flavin-containing] A (Homo sapiens, UniProt P21397).
T2 sequence (P21397 whole entry): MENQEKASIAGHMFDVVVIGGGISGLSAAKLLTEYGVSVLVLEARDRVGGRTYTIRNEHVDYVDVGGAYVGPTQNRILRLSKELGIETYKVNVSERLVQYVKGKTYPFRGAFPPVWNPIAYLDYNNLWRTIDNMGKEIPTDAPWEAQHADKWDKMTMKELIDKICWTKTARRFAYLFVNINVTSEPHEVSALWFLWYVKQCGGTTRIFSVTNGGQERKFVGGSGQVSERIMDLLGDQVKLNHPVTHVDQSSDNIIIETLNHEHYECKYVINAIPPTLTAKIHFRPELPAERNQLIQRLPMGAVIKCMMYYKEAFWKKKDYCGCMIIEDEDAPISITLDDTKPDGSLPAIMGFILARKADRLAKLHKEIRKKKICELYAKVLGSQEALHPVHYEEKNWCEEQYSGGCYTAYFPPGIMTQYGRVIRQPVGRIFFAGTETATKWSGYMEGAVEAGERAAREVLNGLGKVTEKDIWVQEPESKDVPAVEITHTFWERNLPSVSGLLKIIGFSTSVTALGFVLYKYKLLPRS
The experiment in a line: Binding affinity to human recombinant MAO-A assessed as inhibition constant by MAO-GloTM method.

For assay [11], the system named is A549. The assay can be described thus: Antiproliferative activity against human A549 cells. The class given is functional, cell-based.
Assay [12] concerns SW1573. The experiment in a line: Antiproliferative activity against human SW1573 cells. It counts as functional, cell-based.
In assay [13] the test system is HBL-100. The experiment in a line: Antiproliferative activity against human HBL-100 cells. It counts as functional, cell-based.
In assay [14] the test system is T47D. The experiment in a line: Antiproliferative activity against human T47D cells. The class given is functional, cell-based.
The test system of assay [15] is WiDr. The assay can be described thus: Antiproliferative activity against human WiDr cells. The class given is functional, cell-based.
For assay [16], the target named is T2, Amine oxidase [flavin-containing] A. The assay can be described thus: Inhibition of MAO-A (unknown origin).

Molecules are shown by their SMILES. Where only a bound is given, the exact number is not on record here.

The IC50 is the concentration that inhibits the measured activity by half. Regarding `O=C(Cn1cc(Cn2c(=O)c(Cc3ccccc3)nc3ccccc32)nn1)N/N=C/c1cccnc1`, in [1], the 50% inhibitory concentration (IC50) amounted to 18 µM. Moreover, in [2], the Activity amounted to 75%.

Take `CN1CCC2=C(C1)C(c1c[nH]c3ccc(Br)cc13)c1cc(Cl)ccc1O2` (centres undefined): the IC50 in assay [3], in assay [4] and in assay [5] was 4.83 µM in each case.

Broadly, the Ki is a dissociation constant, usually derived from enzyme kinetics or from competition with a known ligand. For `C=C(CCCCCCNc1ccccc1OC)Nc1ccc(CCc2ccc(NC(=C)CCCCCCNc3ccccc3OC)cc2)cc1`, the Ki in [6] was less than 1 µM.

One may read the GI50 as the concentration giving 50% growth inhibition. Take `COc1ccccc1NCCCCCCC(=O)Nc1ccc(CCc2ccc(NC(=O)CCCCCCNc3ccccc3OC)cc2)cc1`: in assay [7], the GI50 was less than 1 µM.

In the case of `O=C(Cn1cc(Cn2c(=O)c(Cc3ccccc3)nc3ccccc32)nn1)NNC(=S)Nc1ccccc1`, in [1], the IC50 is 7.85 µM. Also, in [2], the Activity stood at 75%.

In assay [8], `C/C(=N\Nc1nc(-c2cccc([N+](=O)[O-])c2)cs1)c1ccsc1` showed an IC50 of 0.0025 µM.

Take `O=c1cc(-c2ccccc2)oc2c(Cl)cc(Cl)cc12`: in assay [9], the IC50 is roughly 10 µM. Besides, in assay [10], the Ki was determined as 0.0074 µM.

Regarding `O=[N+]([O-])c1ccc(/C=N/Nc2nc(-c3ccccc3)c[se]2)cc1`, the IC50 in assay [11] came out at 24 µM; in [12] it was 24 µM; in [13] it was 24 µM; in assay [14], 24 µM; in assay [15] it was 24 µM; in assay [16], 7.2 µM.

Turning to `C/C(=N\Nc1nc(-c2cccc([N+](=O)[O-])c2)cs1)c1cccs1`, the IC50 in assay [8] was determined as 0.0068 µM.
